From PMC11110727, “Exploiting thiol-functionalized benzosiloxaboroles for achieving diverse substitution patterns – synthesis, characterization and biological evaluation of promising antibacterial agents” (RSC Medicinal Chemistry, 2024)
Values after ≈ are worked out from the molar mass of the structure shown.

Columns and labels:
E. coli ATCC 25922 = assay: Antibacterial activity: MIC/MBC, MIC with PAβN, disc-diffusion; type: cell-based, Escherichia coli; conditions: E. coli ATCC 25922
Summary of the method: (§1)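 MICs were measured by CLSI broth microdilution in Mueller–Hinton II broth, with or without the efflux-pump inhibitor PAβN (20 μg mL^−1) and with 1 mM MgSO4 present. A reduction of at least 4-fold with PAβN was counted as significant. Disc diffusion followed EUCAST/CLSI, MBC followed CLSI, and compounds were dissolved in DMSO.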

E. faecium ATCC 6057 = assay: Antibacterial activity: MIC/MBC determination and disc-diffusion; type: cell-based; conditions: Enterococcus faecium, ATCC6057; E. faecium ATCC 6057; read-out: MIC
Summary of the method: (§2)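 Yeasts are grown twice on Sabouraud dextrose agar and bacteria twice on tryptic soy agar (30 °C, 24–48 h). MIC and disc-diffusion testing follow EUCAST/CLSI, and fungicidal or bactericidal activity follows CLSI. Compounds are dissolved in DMSO.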

[1] = tested on: S. aureus ATCC 43300 MRSA; assay: as above; type: cell-based; conditions: Staphylococcus aureus; S. aureus ATCC 43300 MRSA; read-out: MIC
Summary of the method: as §2

B. cepacia ATCC 25416 = assay: Antibacterial activity: MIC/MBC, disc-diffusion; type: cell-based, Burkholderia cepacia; conditions: Burkholderia cepacia, ATCC25416; B. cepacia ATCC 25416; read-out: MIC
Summary of the method: as §1

C. krusei ATCC 6258 = assay: Antifungal activity: MIC/MFC, disc-diffusion; type: cell-based; conditions: Pichia kudriavzevii, ATCC6258; read-out: MIC
Summary of the method: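 Yeast subcultured on Sabouraud dextrose agar 24–48 h at 30 °C before testing. Disc-diffusion and MIC per EUCAST and CLSI recommendations; MFC per CLSI. Compounds dissolved in DMSO.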

[2] = tested on: S. maltophilia ATCC 12714; assay: Antibacterial activity: MIC/MBC, MIC with PAβN, disc-diffusion; type: cell-based, Stenotrophomonas maltophilia; conditions: Stenotrophomonas maltophilia, ATCC12714; S. maltophilia ATCC 12714; read-out: MIC
Summary of the method: as §1

[3] = tested on: S. maltophilia ATCC 13637; assay: as above; type: cell-based, Stenotrophomonas maltophilia; conditions: Stenotrophomonas maltophilia, ATCC13637; S. maltophilia ATCC 13637; read-out: MIC
Summary of the method: as §1

E. cloacae DSM 6234 = assay: as above; type: cell-based, Enterobacter cloacae; conditions: Enterobacter cloacae, DSM6234; E. cloacae DSM 6234; read-out: MIC
Summary of the method: as §1

S. cerevisiae ATCC 9763 = assay: Antifungal activity: MIC/MFC, disc-diffusion; type: cell-based, Saccharomyces cerevisiae; conditions: Saccharomyces cerevisiae, ATCC9763; read-out: MIC
Summary of the method: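 Disc-diffusion and broth MIC assays followed EUCAST and CLSI recommendations; MBC/MFC were determined per CLSI. Strains were subcultured twice before testing (bacteria on tryptic soy agar, yeasts on Sabouraud dextrose agar, 24–48 h, 30 °C). Compounds were dissolved in DMSO.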

[4] = tested on: B. bronchiseptica ATCC 4617; assay: Antibacterial activity: MIC/MBC, disc-diffusion; type: cell-based, Bordetella bronchiseptica; conditions: Bordetella bronchiseptica, ATCC4617; B. bronchiseptica ATCC 4617; read-out: MIC
Summary of the method: as §1

C[Si]1(C)OB(O)c2cc(F)c(S(=O)(=O)Nc3ccc(F)cc3)c(F)c21 [Compound 28, 5,7-Difluoro-N-(4-fluorophenyl)-3-hydroxy-1,1-dimethyl-1,3-dihydrobenzo[c][1,2,5]oxasilaborole-6-sulfonamide]
-fold reduction of MIC in the presence of PAβN (E. coli ATCC 25922; PAβN 20 μg mL^−1, MHB + 1 mM MgSO4): 4 -fold
MIC (E. coli ATCC 25922; Escherichia coli, ATCC25922, read-out: MIC): > 400 µg/mL
MIC (E. faecium ATCC 6057): 400 µg/mL (≈ 1030 µM)
MIC [1]: 100 µg/mL (≈ 258 µM)
MIC (B. cepacia ATCC 25416): > 400 µg/mL
MIC (C. krusei ATCC 6258): > 400 µg/mL
MIC [2]: > 400 µg/mL
MIC [3]: > 400 µg/mL
MIC (E. cloacae DSM 6234): > 400 µg/mL
MIC (S. cerevisiae ATCC 9763): > 400 µg/mL
MIC [4]: > 400 µg/mL
